In PubChem BioAssay (NCI):
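A five-concentration, 48-hour dose response in 96-well plates underlies each endpoint, interpolated linearly between surrounding concentrations. GI50 marks 50% less growth. Definition used: TGI = concentration required for complete inhibition of growth.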

Tests used:
Test in all cases: NCI anticancer screen, dose series, 48 h
CCRF-CEM leukemia = tested on: CCRF-CEM leukemia
OVCAR-8 ovarian = tested on: OVCAR-8 ovarian
MALME-3M melanoma = tested on: MALME-3M melanoma
ACHN renal = tested on: ACHN renal
SF-268 CNS = tested on: SF-268 CNS
SW-620 colon = tested on: SW-620 colon
COLO 205 colon = tested on: COLO 205 colon
RPMI-8226 leukemia = tested on: RPMI-8226 leukemia
SN12C renal = tested on: SN12C renal
NCI-H226 lung = tested on: NCI-H226 lung
SNB-75 CNS = tested on: SNB-75 CNS
SK-MEL-2 melanoma = tested on: SK-MEL-2 melanoma
HCT-116 colon = tested on: HCT-116 colon
MDA-MB-231 breast = tested on: MDA-MB-231 breast
UACC-257 melanoma = tested on: UACC-257 melanoma
OVCAR-3 ovarian = tested on: OVCAR-3 ovarian
CAKI-1 renal = tested on: CAKI-1 renal
NCI/ADR-RES ovarian = tested on: NCI/ADR-RES ovarian
HT29 colon = tested on: HT29 colon
BT-549 breast = tested on: BT-549 breast
SNB-19 CNS = tested on: SNB-19 CNS
KM12 colon = tested on: KM12 colon
HCT-15 colon = tested on: HCT-15 colon
OVCAR-4 ovarian = tested on: OVCAR-4 ovarian
IGROV1 ovarian = tested on: IGROV1 ovarian
SK-MEL-5 melanoma = tested on: SK-MEL-5 melanoma
M14 melanoma = tested on: M14 melanoma
NCI-H23 lung = tested on: NCI-H23 lung
OVCAR-5 ovarian = tested on: OVCAR-5 ovarian
SF-295 CNS = tested on: SF-295 CNS
U251 CNS = tested on: U251 CNS
PC-3 prostate = tested on: PC-3 prostate
HS 578T breast = tested on: HS 578T breast
K-562 leukemia = tested on: K-562 leukemia
MCF7 breast = tested on: MCF7 breast
A498 renal = tested on: A498 renal
NCI-H460 lung = tested on: NCI-H460 lung
DU-145 prostate = tested on: DU-145 prostate
UACC-62 melanoma = tested on: UACC-62 melanoma
MDA-MB-435 = tested on: MDA-MB-435
HOP-62 NSCLC = tested on: HOP-62 NSCLC
EKVX NSCLC = tested on: EKVX NSCLC
SR leukemia = tested on: SR leukemia
UO-31 renal = tested on: UO-31 renal
SF-539 CNS = tested on: SF-539 CNS
HOP-92 NSCLC = tested on: HOP-92 NSCLC
LOX IMVI melanoma = tested on: LOX IMVI melanoma
HL-60(TB) leukemia = tested on: HL-60(TB) leukemia
786-0 renal = tested on: 786-0 renal
NCI-H522 lung = tested on: NCI-H522 lung
HCC-2998 colon = tested on: HCC-2998 colon
MOLT-4 leukemia = tested on: MOLT-4 leukemia
SK-MEL-28 melanoma = tested on: SK-MEL-28 melanoma
SK-OV-3 ovarian = tested on: SK-OV-3 ovarian
TK-10 renal = tested on: TK-10 renal
A549 NSCLC = tested on: A549 NSCLC
T-47D breast = tested on: T-47D breast
RXF 393 renal = tested on: RXF 393 renal

## COc1ccc(Cn2cc3c(c2-c2cc(OC)c(OC)c(OC)c2)CCc2c(CO)noc2-3)cc1
CCRF-CEM leukemia
  GI50: 347 nM
  TGI: 23700 nM
OVCAR-8 ovarian
  GI50: 417 nM
  TGI: 19600 nM
MALME-3M melanoma
  GI50: 2460 nM
  TGI: 29300 nM
ACHN renal
  GI50: 659 nM
  TGI: 45000 nM
SF-268 CNS
  GI50: 1580 nM
  TGI: 26500 nM
SW-620 colon
  GI50: 381 nM
  TGI: > 100000 nM
COLO 205 colon
  GI50: 339 nM
  TGI: 4280 nM
RPMI-8226 leukemia
  GI50: 410 nM
  TGI: 13600 nM
SN12C renal
  GI50: 765 nM
  TGI: 19200 nM
NCI-H226 lung
  GI50: 2940 nM
  TGI: 38200 nM
SNB-75 CNS
  GI50: 177 nM
  TGI: 24400 nM
SK-MEL-2 melanoma
  GI50: 455 nM
  TGI: 19500 nM
HCT-116 colon
  GI50: 311 nM
  TGI: 11400 nM
MDA-MB-231 breast
  GI50: 629 nM
  TGI: 19000 nM
UACC-257 melanoma
  GI50: 16500 nM
  TGI: 50200 nM
OVCAR-3 ovarian
  GI50: 312 nM
  TGI: 12900 nM
CAKI-1 renal
  GI50: 342 nM
  TGI: 20100 nM
NCI/ADR-RES ovarian
  GI50: 294 nM
  TGI: > 57000 nM
HT29 colon
  GI50: 323 nM
  TGI: 13000 nM
BT-549 breast
  GI50: 608 nM
  TGI: 7340 nM
SNB-19 CNS
  GI50: 430 nM
  TGI: 21400 nM
KM12 colon
  GI50: 341 nM
  TGI: 17900 nM
HCT-15 colon
  GI50: 315 nM
  TGI: 27100 nM
OVCAR-4 ovarian
  GI50: 4200 nM
  TGI: 51600 nM
IGROV1 ovarian
  GI50: 596 nM
  TGI: 32100 nM
SK-MEL-5 melanoma
  GI50: 334 nM
  TGI: 11900 nM
M14 melanoma
  GI50: 215 nM
  TGI: 2880 nM
NCI-H23 lung
  GI50: 612 nM
  TGI: 42100 nM
OVCAR-5 ovarian
  GI50: 543 nM
  TGI: > 82300 nM
SF-295 CNS
  GI50: 225 nM
  TGI: 15200 nM
U251 CNS
  GI50: 349 nM
  TGI: 15500 nM
PC-3 prostate
  GI50: 309 nM
  TGI: 41900 nM
HS 578T breast
  GI50: 371 nM
  TGI: 35800 nM
K-562 leukemia
  GI50: 313 nM
  TGI: > 100000 nM
MCF7 breast
  GI50: 176 nM
  TGI: 17800 nM
A498 renal
  GI50: 187 nM
  TGI: 3030 nM
NCI-H460 lung
  GI50: 341 nM
  TGI: 13600 nM
DU-145 prostate
  GI50: 361 nM
  TGI: 16000 nM
UACC-62 melanoma
  GI50: 354 nM
  TGI: 20700 nM
MDA-MB-435
  GI50: 60.5 nM
  TGI: 245 nM
HOP-62 NSCLC
  GI50: 397 nM
  TGI: 25700 nM
EKVX NSCLC
  GI50: 644 nM
  TGI: > 76900 nM
SR leukemia
  GI50: 194 nM
  TGI: 23200 nM
UO-31 renal
  GI50: 639 nM
  TGI: 22400 nM
SF-539 CNS
  GI50: 213 nM
  TGI: 658 nM
HOP-92 NSCLC
  GI50: 2970 nM
  TGI: 22200 nM
LOX IMVI melanoma
  GI50: 615 nM
  TGI: 16600 nM
HL-60(TB) leukemia
  GI50: 231 nM
  TGI: 656 nM
786-0 renal
  GI50: 493 nM
  TGI: 24700 nM
NCI-H522 lung
  GI50: 206 nM
  TGI: 12200 nM
HCC-2998 colon
  GI50: 1080 nM
  TGI: 19200 nM
MOLT-4 leukemia
  GI50: 458 nM
  TGI: 27800 nM
SK-MEL-28 melanoma
  GI50: 4350 nM
  TGI: 24500 nM
SK-OV-3 ovarian
  GI50: 428 nM
  TGI: 31100 nM
TK-10 renal
  GI50: 17700 nM
  TGI: 55200 nM
A549 NSCLC
  GI50: 439 nM
  TGI: > 100000 nM
T-47D breast
  GI50: 376 nM
  TGI: 59300 nM

## COc1cc2nc3cc([N+](=O)[O-])ccc3c(NCCNCC(C)O)c2cc1OC (stereo not drawn)
CCRF-CEM leukemia
  GI50: 340 nM
  TGI: 3130 nM
OVCAR-8 ovarian
  GI50: 587 nM
  TGI: 3130 nM
MALME-3M melanoma
  GI50: 785 nM
  TGI: 2250 nM
ACHN renal
  GI50: 614 nM
  TGI: 3930 nM
SF-268 CNS
  GI50: 469 nM
  TGI: 2460 nM
SW-620 colon
  GI50: 431 nM
  TGI: 3090 nM
COLO 205 colon
  GI50: 368 nM
  TGI: 1570 nM
RPMI-8226 leukemia
  GI50: 1550 nM
  TGI: 5520 nM
NCI-H226 lung
  GI50: 1050 nM
  TGI: 3180 nM
SNB-75 CNS
  GI50: 675 nM
  TGI: 2070 nM
SK-MEL-2 melanoma
  GI50: 630 nM
  TGI: 2180 nM
HCT-116 colon
  GI50: 358 nM
  TGI: 1750 nM
MDA-MB-231 breast
  GI50: 604 nM
  TGI: 3080 nM
UACC-257 melanoma
  GI50: 1630 nM
  TGI: 3670 nM
OVCAR-3 ovarian
  GI50: 482 nM
  TGI: 1740 nM
CAKI-1 renal
  GI50: 2500 nM
  TGI: 10900 nM
NCI/ADR-RES ovarian
  GI50: 7420 nM
  TGI: 23600 nM
HT29 colon
  GI50: 317 nM
  TGI: 1280 nM
BT-549 breast
  GI50: 1750 nM
  TGI: 3900 nM
SNB-19 CNS
  GI50: 436 nM
  TGI: 2740 nM
RXF 393 renal
  GI50: 641 nM
  TGI: 2340 nM
KM12 colon
  GI50: 619 nM
  TGI: 2870 nM
HCT-15 colon
  GI50: 3270 nM
  TGI: 13100 nM
OVCAR-4 ovarian
  GI50: 886 nM
  TGI: 2920 nM
IGROV1 ovarian
  GI50: 495 nM
  TGI: 2260 nM
M14 melanoma
  GI50: 1250 nM
  TGI: 2960 nM
NCI-H23 lung
  GI50: 554 nM
  TGI: 3070 nM
OVCAR-5 ovarian
  GI50: 2610 nM
  TGI: 9410 nM
SF-295 CNS
  GI50: 484 nM
  TGI: 3340 nM
U251 CNS
  GI50: 442 nM
  TGI: 2260 nM
PC-3 prostate
  GI50: 512 nM
  TGI: 2460 nM
HS 578T breast
  GI50: 1450 nM
  TGI: 5510 nM
MCF7 breast
  GI50: 332 nM
  TGI: 1570 nM
A498 renal
  GI50: 1370 nM
  TGI: 3020 nM
NCI-H460 lung
  GI50: 366 nM
  TGI: 1600 nM
DU-145 prostate
  GI50: 445 nM
  TGI: 2200 nM
MDA-MB-435
  GI50: 572 nM
  TGI: 1980 nM
HOP-62 NSCLC
  GI50: 713 nM
  TGI: 2870 nM
EKVX NSCLC
  GI50: 1620 nM
  TGI: 5340 nM
SR leukemia
  GI50: 286 nM
  TGI: 2160 nM
UO-31 renal
  GI50: 1670 nM
  TGI: 5840 nM
SF-539 CNS
  GI50: 693 nM
  TGI: 2470 nM
HOP-92 NSCLC
  GI50: 367 nM
  TGI: 2310 nM
LOX IMVI melanoma
  GI50: 768 nM
  TGI: 2510 nM
HL-60(TB) leukemia
  GI50: 2520 nM
  TGI: 6660 nM
786-0 renal
  GI50: 1230 nM
  TGI: 3600 nM
NCI-H522 lung
  GI50: 224 nM
  TGI: 1060 nM
MOLT-4 leukemia
  GI50: 353 nM
  TGI: 6210 nM
SK-OV-3 ovarian
  GI50: 1980 nM
  TGI: 5350 nM
TK-10 renal
  GI50: 1720 nM
  TGI: 5710 nM
A549 NSCLC
  GI50: 1430 nM
  TGI: 5130 nM
T-47D breast
  GI50: 365 nM
  TGI: 2330 nM
